Measured values published in PMC11215771 (Journal of Medicinal Chemistry, 2024).

Target: T1, hCathepsinD in HEK293T cells (Homo sapiens, UniProt P07339)
T1 construct: EGFP or mCherry (C); host or cells: HEK293T
Assay: Staining of transfected HEK293T cells, confocal imaging: Cathepsin D
Type: cell-based
Method: Next, we explored the performance of the new Alexa-C3 compounds in living cells. Because of the rather hydrophilic properties, we exclusively targeted the cell membrane. To prevent intracellular accumulation, we first performed stainings at 4 °C arresting ATP-dependent endocytosis. […] All of the constructs were tagged at the C-terminus with either EGFP or mCherry to visualize subcellular expression. […] With these experiments, we want to exclude that a lack of staining is caused by an impaired accessibility of the protein by Alexa-C3 compounds. […] We then tested samples with BACE1 expression after fixation of the cells with paraformaldehyde (PFA).
(D) All conjugates were also probed on cells fixed with 4% paraformaldehyde (PFA) for 15 min prior to staining. […] Scale bars represent 5 μm (A–D) and 20 μm (E). […] Samples were excited at 488, 561, and 633 nm, respectively.
HEK293T cells (ATCC accession number CRL-11268) were maintained in Dulbecco's modified Eagle's medium (Sigma-Aldrich D6046) with 1g/L glucose, supplemented with 10% FCS (Merck) and 1% penicillin/streptomycin (PAA). CHO-K1 cells (ATCC #CCL-61) were maintained in modified phenol red free RPMI-1640 medium (Sigma-Aldrich, R7509), supplemented with 2 mM L-glutamine (Sigma-Aldrich, G7513), and 10% FCS (Merck). Cells were cultured at 37 °C in a 5% CO2 atmosphere. […]

T1 sequence (P07339 65-412): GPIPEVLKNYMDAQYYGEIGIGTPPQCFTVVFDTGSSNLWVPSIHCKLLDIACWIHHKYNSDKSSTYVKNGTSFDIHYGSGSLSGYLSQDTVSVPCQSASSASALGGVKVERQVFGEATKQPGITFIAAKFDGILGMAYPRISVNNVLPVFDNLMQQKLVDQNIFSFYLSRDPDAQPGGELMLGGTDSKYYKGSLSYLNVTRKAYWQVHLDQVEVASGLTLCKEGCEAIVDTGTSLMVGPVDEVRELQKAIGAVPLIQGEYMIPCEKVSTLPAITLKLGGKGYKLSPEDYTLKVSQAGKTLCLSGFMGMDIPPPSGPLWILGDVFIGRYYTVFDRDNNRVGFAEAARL

staining of Cathepsin D: not labeled
SMILES: C[C@@H](NC(=O)c1cc(C(=O)N[C@@H](Cc2ccccc2)[C@H](O)CNC2CC2)cc(N(C)S(=O)(=O)CCCNC(=O)CCCCCC2(C)C(/C=C/C=C/C=C3/N(CCCS(=O)(=O)O)c4ccc(S(=O)(=O)O)cc4C3(C)C)=[N+](CCCS(=O)(=O)[O-])c3ccc(S(=O)(=O)O)cc32)c1)c1ccccc1 (stereo partly shown)
